Source: publication PMC6651024, “LIR Motif-Containing Hyperdisulfide β-Ginkgotide is Cytoprotective, Adaptogenic, and Scaffold-Ready” (Molecules, 2019)
Entries after “also recorded” stand apart in the source; their conditions may differ. Where a SMILES comes first, the peptide text is derived from it. The star is where a group is joined. Cam = NC(=O)C*

Experiments:
trypsin = assay: Enzymatic (proteolytic) stability against trypsin; format: in vitro ADME; details: trypsin, 37 °C, five minute treatment; MALDI-TOF MS and C18 RP-HPLC
Method: (§1) To assess the proteolytic stability of β-gB1, it was treated with trypsin or pepsin for 6 h. […] Similarly, the S-alkylated β-gB1 was degraded completely by pepsin within 30 min. […] This is in agreement with other plant CRPs that contain a compact structure, whose proteolytic stability was examined up to six hours treatment.
(§2) The folded β-gB1 (28 µg) was added to 100 μL of a 0.1 M ammonium bicarbonate buffer (pH 7.8) containing 800 U/mL of trypsin or 4 mg/mL of pepsin and incubated at 37 °C for 6 h. At each time-point (0, 1, 2, 4, and 6 h), 20 µL of the treated sample was aliquoted and quenched by adding 5 µL of 1 M hydrochloric acid or 0.8 μL of 1 M sodium hydroxide. The reduced β-gB1 was alkylated with iodoacetamide (S-alkylated β-gB1) and used as a control in this study. The reaction mixture was analyzed by MALDI-TOF MS and C18-reversed-phase HPLC to determine its stability.

pepsin = target: T1, pepsin (Sus scrofa, UniProt P00791); assay: Enzymatic (proteolytic) stability against pepsin; format: in vitro ADME; details: 37 °C, MALDI-TOF MS and C18 RP-HPLC
T1 construct: purchased Sigma-Aldrich
Method: as §1, §2

H9c2 cells [1] = assay: MTT-based cell proliferation assay under normoxia, H9c2; parameters: species or system rat; details: H9c2, 10 µM peptide, 48 h, triplicates
Text: (§3) In addition, β-gB1 is non-toxic to Vero and BHK (baby hamster kidney) cell lines based on an MTT assay. […] LDH is a cytoplasmic enzyme which is rapidly released into the cell culture medium upon plasma membrane damage and is widely used as a marker for cytotoxicity. Thus, an LDH-release assay measures the level of plasma membrane damage to a cell population.
(§4) Rat cardio-myoblast cells (H9c2) and […] neuron-like SH-SY5Y cells were purchased from ATCC and maintained in DMEM (Dulbecco’s modified eagle medium) medium supplemented with 10% fetal bovine serum (FBS), 10,000 U/mL of penicillin, and 10,000 µg/mL of streptomycin at 37 °C, 5% CO2.
(§5) Cells were cultured in DMEM with or without β-gB1/S-alkylated β-gB1 (β-gB1Alk) for 48 h under normoxia, hypoxia, and hypoxia-reoxygenation conditions. Phosphate-buffered saline (PBS) was used as a vehicle control. After 48 h, MTT (3-(4,5-dimethylthiazol-2-yl)-2,5-diphenyltetrazolium bromide) reagent was added with a final concentration of 0.5 mg/mL, and it was incubated at 37 °C for 2 h. The culture medium was then aspirated, and purple formazan crystals were dissolved in DMSO for colorimetric quantification at 570 nm using a microplate reader with a reference wavelength of 630 nm. […]

SH-SY5Y cells [2] = assay: MTT-based cell proliferation assay under normoxia, SH-SY5Y; parameters: species or system human; details: 10 µM peptide, 48 h, triplicates
Text: as §3, §4, §5

H9c2 cells [3] = assay: LDH release cytotoxicity assay, H9c2; format: cell-based, rat; details: H9c2, 10 µM peptide, 48 h, 37 °C; LDH kit, 450 nm; triplicates
Text: as §3, §4
(§6) An LDH release assay was performed using the CytoSelect™ LDH cytotoxicity assay kit (CBA-241, Cell Biolabs, Inc., San Diego, CA, USA). In brief, cells were cultured in DMEM with or without 10 µM of β-gB1 and S-alkylated β-gB1 (β-gB1Alk) for 48 h at 37 °C and 5% CO2. PBS was used for the vehicle control experiment. The culture medium was transferred and mixed with the LDH assay reagent in a ratio of 9:1. The reaction mixture was incubated at 37 °C for 2 h, and colorimetric quantification was performed using a 450 nm wavelength. The assay was performed in experimental triplicates, and statistical calculations and bar graphs were done using GraphPad Prism software (Version 6.01). […]

SH-SY5Y cells [4] = assay: LDH release cytotoxicity assay, SH-SY5Y; format: cell-based, mouse; details: 10 µM peptide, 48 h, 37 °C, LDH kit, 450 nm, triplicates
Text: as §3, §4, §6

T1 sequence (P00791 60-385): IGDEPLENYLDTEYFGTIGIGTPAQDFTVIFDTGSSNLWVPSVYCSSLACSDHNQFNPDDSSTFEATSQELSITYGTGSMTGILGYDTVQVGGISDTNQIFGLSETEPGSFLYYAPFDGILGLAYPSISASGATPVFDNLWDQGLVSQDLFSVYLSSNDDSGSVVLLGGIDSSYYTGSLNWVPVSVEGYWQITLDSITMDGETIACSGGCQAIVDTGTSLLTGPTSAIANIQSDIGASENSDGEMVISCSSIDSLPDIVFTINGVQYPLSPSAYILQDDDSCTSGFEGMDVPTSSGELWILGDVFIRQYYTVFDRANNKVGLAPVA

CC[C@H](C)[C@H](NC(=O)[C@H](CSCC(N)=O)NC(=O)CNC(=O)[C@H](Cc1ccc(O)cc1)NC(=O)[C@H](CCC(=O)O)NC(=O)[C@H](CC(=O)O)NC(=O)[C@H](CC(C)C)NC(=O)[C@H](Cc1ccc(O)cc1)NC(=O)[C@H](CSCC(N)=O)NC(=O)[C@H](CSCC(N)=O)NC(=O)[C@H](CCCNC(=N)N)NC(=O)[C@H](CCCCN)NC(=O)[C@H](CSCC(N)=O)NC(=O)CNC(=O)[C@@H](NC(=O)[C@H](CCC(=O)O)NC(=O)[C@@H](N)Cc1ccc(O)cc1)[C@@H](C)O)C(=O)N[C@@H](CCCNC(=N)N)C(=O)N[C@@H](CSCC(N)=O)C(=O)N[C@@H](CSCC(N)=O)C(=O)O [S-alkylated β-gB1, reference compound] (H-YETGC(Cam)KRC(Cam)C(Cam)YLDEYGC(Cam)IRC(Cam)C(Cam)-OH)
Degradation by trypsin after five minute treatment (trypsin): completely degraded | Time to complete degradation by pepsin (pepsin): ≤ 30 min | Cell viability (growth or death) under normoxia (H9c2 cells [1]): No change in cell viability; also recorded: no significant effect on the growth or death | Cell viability (growth or death) under normoxia (SH-SY5Y cells [2]): No change in cell viability; also recorded: no significant effect on the growth or death | Cytotoxicity / cell-membrane damage by LDH release (H9c2 cells [3]): no significant cytotoxicity or cell-membrane damaging effects | Cytotoxicity / cell-membrane damage by LDH release (SH-SY5Y cells [4]): no significant cytotoxicity or cell-membrane damaging effects
